Assay results taken from article PMC8617627, “Novel DYRK1A Inhibitor Rescues Learning and Memory Deficits in a Mouse Model of Down Syndrome” (Pharmaceuticals, 2021).
Like-named read-outs stand apart in the source and are kept apart here.

Columns and labels:
Assay in all cases: Kinase profile (33P ATP filter binding)
Type in all cases: biochemical
Details in all cases: read-out: Remaining protein kinase activity
[1] = target: OSR1 (Homo sapiens, UniProt O95747)
Protocol: (§1) The compounds were diluted to the appropriate concentration. The compounds were added to a “mother plate” consisting of samples, controls, and blanks. These serve as the source for “daughter plates” which are stored at −20 °C until assay initiation. Protein Kinases: Enzyme/Substrate mixture was added to the compound, and the compounds were incubated for five minutes at room temperature (RT). ^33P ATP was added to the compounds to initiate the assay. Orthophosphoric acid was added to the compounds to halt the assay. Assay components were harvested onto P81 filter plates, filter plates were air-dried, scintillation fluid was added to plates, and counts were read on a Topcount NXT. A mean percentage activity was calculated.

[2] = target: T1, TLK1 (Homo sapiens, UniProt Q9UKI8)
T1 sequence (Q9UKI8 1-766): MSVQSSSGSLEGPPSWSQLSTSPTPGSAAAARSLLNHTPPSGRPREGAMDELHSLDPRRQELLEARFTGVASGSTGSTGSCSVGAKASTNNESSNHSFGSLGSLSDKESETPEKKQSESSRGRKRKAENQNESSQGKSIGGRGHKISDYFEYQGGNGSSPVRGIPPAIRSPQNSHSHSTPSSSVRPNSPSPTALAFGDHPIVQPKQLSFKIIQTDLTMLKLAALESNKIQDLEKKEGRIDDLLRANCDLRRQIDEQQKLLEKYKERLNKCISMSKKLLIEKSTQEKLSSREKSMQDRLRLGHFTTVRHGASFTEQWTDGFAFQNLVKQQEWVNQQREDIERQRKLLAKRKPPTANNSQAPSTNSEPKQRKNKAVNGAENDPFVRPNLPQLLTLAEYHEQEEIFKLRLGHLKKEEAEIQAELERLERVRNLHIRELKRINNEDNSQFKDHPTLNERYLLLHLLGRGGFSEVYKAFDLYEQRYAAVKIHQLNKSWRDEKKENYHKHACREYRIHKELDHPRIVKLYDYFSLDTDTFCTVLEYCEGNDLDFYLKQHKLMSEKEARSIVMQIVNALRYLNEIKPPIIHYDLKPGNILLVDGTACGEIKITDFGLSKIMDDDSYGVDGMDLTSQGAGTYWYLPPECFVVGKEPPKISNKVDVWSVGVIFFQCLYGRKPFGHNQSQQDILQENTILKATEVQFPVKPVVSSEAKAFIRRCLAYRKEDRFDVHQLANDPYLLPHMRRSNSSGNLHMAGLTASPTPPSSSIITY
Protocol: as §1

[3] = target: T2, TSSK1 (Homo sapiens, UniProt Q9BXA7)
T2 sequence (Q9BXA7 1-367): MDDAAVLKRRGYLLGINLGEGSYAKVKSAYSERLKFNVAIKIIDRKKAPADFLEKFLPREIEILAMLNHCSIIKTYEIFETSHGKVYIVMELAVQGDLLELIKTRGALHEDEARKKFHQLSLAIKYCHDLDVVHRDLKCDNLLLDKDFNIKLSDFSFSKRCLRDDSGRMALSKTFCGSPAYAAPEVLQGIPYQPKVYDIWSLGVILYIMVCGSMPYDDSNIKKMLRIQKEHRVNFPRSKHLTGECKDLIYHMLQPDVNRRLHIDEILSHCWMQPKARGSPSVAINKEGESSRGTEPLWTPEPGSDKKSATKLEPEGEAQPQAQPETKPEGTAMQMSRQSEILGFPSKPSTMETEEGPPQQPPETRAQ
Protocol: as §1

[4] = target: T3, ULK2 (Homo sapiens, UniProt Q8IYT8)
T3 sequence (Q8IYT8 1-1036): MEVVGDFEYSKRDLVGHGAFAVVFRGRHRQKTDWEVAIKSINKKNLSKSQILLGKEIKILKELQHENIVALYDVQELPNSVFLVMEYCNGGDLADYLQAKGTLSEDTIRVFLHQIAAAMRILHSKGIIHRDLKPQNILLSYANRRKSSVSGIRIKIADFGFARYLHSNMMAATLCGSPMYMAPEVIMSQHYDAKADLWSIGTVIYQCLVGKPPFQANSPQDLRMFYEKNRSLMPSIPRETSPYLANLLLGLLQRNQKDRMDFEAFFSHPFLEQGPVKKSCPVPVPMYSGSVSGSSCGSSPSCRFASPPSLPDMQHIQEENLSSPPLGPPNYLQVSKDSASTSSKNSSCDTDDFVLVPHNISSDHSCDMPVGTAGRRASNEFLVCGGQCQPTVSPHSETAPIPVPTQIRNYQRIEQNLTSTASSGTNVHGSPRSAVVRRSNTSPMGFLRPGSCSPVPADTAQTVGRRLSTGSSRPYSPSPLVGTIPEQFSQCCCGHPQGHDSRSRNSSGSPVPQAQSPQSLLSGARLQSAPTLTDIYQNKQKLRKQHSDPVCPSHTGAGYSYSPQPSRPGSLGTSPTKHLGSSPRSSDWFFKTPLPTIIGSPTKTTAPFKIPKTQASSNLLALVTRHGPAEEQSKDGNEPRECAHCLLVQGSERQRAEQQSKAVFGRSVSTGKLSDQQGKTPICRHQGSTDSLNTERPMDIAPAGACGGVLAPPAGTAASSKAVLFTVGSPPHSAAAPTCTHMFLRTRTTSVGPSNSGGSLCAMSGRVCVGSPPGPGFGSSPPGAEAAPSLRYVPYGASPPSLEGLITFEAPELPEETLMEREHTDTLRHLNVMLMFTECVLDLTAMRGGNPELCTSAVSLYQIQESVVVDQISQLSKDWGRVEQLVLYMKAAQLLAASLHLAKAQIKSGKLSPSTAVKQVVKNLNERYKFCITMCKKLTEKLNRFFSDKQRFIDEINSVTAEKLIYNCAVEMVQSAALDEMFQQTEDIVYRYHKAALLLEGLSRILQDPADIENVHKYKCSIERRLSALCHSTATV
Protocol: as §1

OSR1, sequence (O95747 whole entry): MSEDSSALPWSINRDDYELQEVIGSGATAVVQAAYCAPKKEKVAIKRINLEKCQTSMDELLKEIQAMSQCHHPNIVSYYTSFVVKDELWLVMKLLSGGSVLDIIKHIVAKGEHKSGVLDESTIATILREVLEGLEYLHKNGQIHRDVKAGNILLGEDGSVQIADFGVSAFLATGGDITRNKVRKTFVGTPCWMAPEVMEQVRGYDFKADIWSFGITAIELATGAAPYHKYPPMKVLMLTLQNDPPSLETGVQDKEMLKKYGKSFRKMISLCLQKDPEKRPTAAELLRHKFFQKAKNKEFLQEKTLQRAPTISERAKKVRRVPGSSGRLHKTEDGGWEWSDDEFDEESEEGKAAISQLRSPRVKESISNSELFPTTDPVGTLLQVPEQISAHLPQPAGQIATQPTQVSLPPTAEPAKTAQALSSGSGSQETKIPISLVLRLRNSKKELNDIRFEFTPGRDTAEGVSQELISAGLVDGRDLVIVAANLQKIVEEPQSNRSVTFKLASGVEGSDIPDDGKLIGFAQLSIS

Compound	remaining activity at 1 µM ([1]; OSR1, 1 μM) [%]	remaining activity at 100 µM ([1]; OSR1, 100 μM) [%]	remaining activity at 1 µM ([2]; TLK1, 1 μM) [%]	remaining activity at 100 µM ([2]; TLK1, 100 μM) [%]	remaining activity at 1 µM ([3]; TSSK1, 1 μM) [%]	remaining activity at 100 µM ([3]; TSSK1, 100 μM) [%]	remaining activity at 1 µM ([4]; ULK2, 1 μM) [%]	remaining activity at 100 µM ([4]; ULK2, 100 μM) [%]	remaining activity at 1 µM [1] [%]	remaining activity at 100 µM [1] [%]	remaining activity at 1 µM [2] [%]	remaining activity at 100 µM [2] [%]	remaining activity at 1 µM [3] [%]	remaining activity at 100 µM [3] [%]	remaining activity at 1 µM [4] [%]	remaining activity at 100 µM [4] [%]
COc1ccc2sc(-c3cncc(N)c3)nc2c1 [compound 1, 5-(5-Methoxybenzo[d]thiazol-2-yl)pyridin-3-amine]	128	111	131	115	107	70	101	50	–	–	–	–	–	–	–	–
COc1ccc2sc(-c3cncc(NC(C)=O)c3)nc2c1 [PST-001, N-(5-(5-Methoxybenzo[d]thiazol-2-yl)pyridin-3-yl)acetamide]	–	–	–	–	–	–	–	–	120	136	129	134	124	114	111	119
